Laboratory results published in patent publication US8497371B2, “Pipemidic acid derivative autotaxin inhibitors” (University of Memphis Research Foundation, priority 2009, dated 2013).

Tests used:
Type in all cases: biochemical
ATX = ATX (Homo sapiens, UniProt Q13822); assay: ATX inhibition assay with FS-3 substrate; parameters: conditioned serum-free medium (CCM) from MDA-MB-435 cells as the source of ATX; endogenous in cells; host or cells: MDA-MB-435 cells (about 10x concentrated serum-free conditioned medium); settings: for % Response at 10 μM (FS-3): 10 μM compound, FS-3 hydrolysis normalized to vehicle control (low = strong inhibition), mean ± S.D.; for single dose response comparison by aromatic substituent and position: Table 2, same values as % Response at 10 μM; for IC50: FS-3 substrate; for inhibition at 10 µM: single dose 10 μM, % inhibition, read-out: inhibition of ATX-mediated hydrolysis of FS-3
Description: ATX inhibition was assayed using the substrate FS-3 (Echelon Biosciences, Inc., Salt Lake City, Utah, USA). The FS-3 assay used ˜10 times concentrated conditioned serum-free medium (CCM) from MDA-MB-435 cells as the source of ATX, while CCM comprised one-third of the total volume.
All assays were performed in 96-well plates with data read at 1 minute intervals by a Synergy2 system (BioTek, Winooski, Vt.). […] Results are shown at one hour, at which point all fluorescence and absorbance changes as a function of time were linear. All readings were normalized to vehicle control after subtraction of fluorescence in the absence of CCM. Data are shown as the mean±S.D. of at least three wells. All experiments were repeated at least twice and results are shown.

human NPP7 = target: T1, human NPP7 (Homo sapiens, UniProt Q6UWV6); assay: Determination of NPP7 inhibition (pNPPC substrate); settings: 10 μM inhibitor
T1 construct: transfected with human NPP6ex^51 or human NPP7ex expression plasmids; made in house; host or cells: HEK293 cells, transient transfection, pcDNA3.1(+); conditioned medium concentrated about 10x (CCM)
T1 sequence (Q6UWV6 22-433 limits assumed): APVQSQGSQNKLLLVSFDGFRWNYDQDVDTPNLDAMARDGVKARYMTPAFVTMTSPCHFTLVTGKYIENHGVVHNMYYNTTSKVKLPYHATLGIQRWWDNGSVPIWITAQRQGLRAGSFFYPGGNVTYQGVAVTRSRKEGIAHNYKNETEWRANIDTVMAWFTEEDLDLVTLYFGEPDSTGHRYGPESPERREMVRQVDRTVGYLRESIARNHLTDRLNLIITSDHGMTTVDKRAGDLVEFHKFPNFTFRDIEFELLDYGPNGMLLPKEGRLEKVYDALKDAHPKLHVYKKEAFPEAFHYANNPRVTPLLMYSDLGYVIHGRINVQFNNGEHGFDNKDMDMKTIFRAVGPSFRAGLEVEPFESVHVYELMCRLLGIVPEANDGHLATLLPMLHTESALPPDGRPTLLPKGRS
Description: (§1) Inhibitor selectivity was assayed using p-nitrophenylphosphoryl-choline (pNPPC) (Sigma-Aldrich, St. Louis, Mo.) as substrate for NPP6 and NPP7. The final volume (60 μL) included 20 μL (CM, NPP6 or CCM, NPP7, 20 μL inhibitor (10 μM including 1% DMSO) in assay buffer, and 20 μL pNPPC (10 mM, NPP6 or 1 NPP7) in assay buffer. NPP6 assay buffer contained 500 mM NaCl, 0.05% Triton X-100, 100 mM Tris-HCl (pH 9.0), whereas NPP7 assay buffer was comprised of 50 mM Tris HCl, pH 8.5, 150 mM NaCl, and 10 mM taurocholic acid. However, unlike the published methods, EDTA was not added to the NPP7 assay buffer. All assays were performed in 96-well, half area plates (Corning Inc., Lowell, Mass.) at 37° C. with data collected at 2 minute intervals using a Synergy2 absorbance plate reader (BioTek, Winooski, Vt.). Results are shown at the one hour time point, when all absorbance changes as a function of time were linear. Readings were normalized to vehicle control after subtraction of absorbance in the absence of CM or CCM. Data are shown as the mean±S.D. of at least three wells. All experiments were repeated twice and representative results are shown.
(§2) Assays were performed with CM or CCM from HEK293 cells transiently transfected with NPP6 and 7 expression plasmids, respectively. HEK293 cells were seeded in Dulbecco's modified Eagle's medium (DMEM) containing 10% fetal bovine serum, 100 U/ml penicillin, 100 μg/ml streptomycin (Hyclone, Logan, Utah), and 2 mM L-glutamine. HEK293 cells were grown overnight at 37° C. under 5% CO2 to 80% confluence. The cells were then transfected with human NPP6ex^51 or human NPP7ex expression plasmids in the pcDNA3.1(+) mammalian vector in the presence of Polyfect Transfection Reagent (Hyclone, Logan, Utah). Six hours after transfection, the culture medium was changed to serum free DMEM containing L-glutamine and cells were incubated for 48 hours. Expressed protein was collected (NPP6 and NPP7) and concentrated ˜10×(NPP7) using 10 kDa molecular weight cutoff filters (Millipore, Beverly, Mass.) in an Amicon pressure cell (Millipore, Beverly, Mass.).

human NPP6 = target: T2, human NPP6 (Homo sapiens, UniProt Q6UWR7); assay: Determination of NPP6 inhibition (pNPPC substrate); settings: 10 μM inhibitor
T2 construct: transfected with human NPP6ex^51 or human NPP7ex expression plasmids; made in house; host or cells: HEK293 cells, transient transfection, pcDNA3.1(+); unconcentrated conditioned medium (CM)
T2 sequence (Q6UWR7 23-419 limits assumed): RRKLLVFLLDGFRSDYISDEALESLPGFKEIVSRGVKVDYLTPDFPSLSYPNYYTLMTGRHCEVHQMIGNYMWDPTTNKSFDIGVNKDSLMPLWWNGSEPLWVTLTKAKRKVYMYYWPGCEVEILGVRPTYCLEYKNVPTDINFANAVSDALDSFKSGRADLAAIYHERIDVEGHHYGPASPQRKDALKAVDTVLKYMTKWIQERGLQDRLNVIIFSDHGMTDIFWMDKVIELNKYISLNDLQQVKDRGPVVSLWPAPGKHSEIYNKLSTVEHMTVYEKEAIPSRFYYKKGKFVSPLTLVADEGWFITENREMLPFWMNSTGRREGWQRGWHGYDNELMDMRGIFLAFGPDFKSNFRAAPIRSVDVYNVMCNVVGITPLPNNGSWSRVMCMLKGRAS
Description: as §1, §2

Row | % Response at 10 μM (FS-3) (ATX) [%] | single dose response comparison by aromatic substituent and position (ATX) | Compound | other results
1 | 83.5 ± 8.2 | 83.5 ± 8.2 | CCn1cc(C(=O)O)c(=O)c2cnc(N3CCN(C(=S)Nc4ccccc4Cl)CC3)nc21 [Compound 17, 2-(4-{[(2-chlorophenyl)amino]carbonothioyl}-1-piperazinyl)-8-ethyl-5-oxo-5,8-dihydropyrido[2,3-d]pyrimidine-6-carboxylic acid] | –
2 | 59.9 ± 1.5 | – | 2-(4-{[(4-dimethylaminonapthylphenyl)amino]carbonothioyl}-1-piperazinyl)-8-ethyl-5-oxo-5,8-dihydropyrido[2,3-d]pyrimidine-6-carboxylic acid [Compound 2] | –
3 | 49.9 ± 1.5 | – | CCn1cc(C(=O)O)c(=O)c2cnc(N3CCN(C(=S)Nc4ccc(C)cc4)CC3)nc21 [Compound 27, 2-(4-{[(4-methylphenyl)amino]carbonothioyl}-1-piperazinyl)-8-ethyl-5-oxo-5,8-dihydropyrido[2,3-d]pyrimidine-6-carboxylic acid] | effect on activity of NPP7 (human NPP7): None of the compounds affected the activity; IC50 (ATX): 16.1 ± 4 µM; inhibition at 10 µM (ATX): ≥ 50%; effect on activity of NPP6 (human NPP6): None of the compounds affected the activity
4 | 97.6 ± 1.8 | 97.6 ± 1.8 | CCn1cc(C(=O)O)c(=O)c2cnc(N3CCN(C(=S)Nc4ccccc4OC)CC3)nc21 [Compound 21, 2-(4-{[(2-methoxyphenyl)amino]carbonothioyl}-1-piperazinyl)-8-ethyl-5-oxo-5,8-dihydropyrido[2,3-d]pyrimidine-6-carboxylic acid] | –
5 | 56.4 ± 1.0 | – | CCn1cc(C(=O)Oc2ccccc2)c(=O)c2cnc(N3CCN(C(=S)Nc4ccccc4)CC3)nc21 [Compound 16, 2-(4-{[(phenyl)amino]carbonothioyl}-1-piperazinyl)-8-ethyl-5-oxo-5,8-dihydropyrido[2,3-d]pyrimidine-6-carboxylic acid phenyl] | –
6 | 48.9 ± 1.1 | 48.9 ± 1.1 | CCn1cc(C(=O)O)c(=O)c2cnc(N3CCN(C(=S)Nc4ccc(F)cc4)CC3)nc21 [Compound 23, 2-(4-{[(4-fluorophenyl)amino]carbonothioyl}-1-piperazinyl)-8-ethyl-5-oxo-5,8-dihydropyrido[2,3-d]pyrimidine-6-carboxylic acid] | effect on activity of NPP7 (human NPP7): None of the compounds affected the activity; IC50 (ATX): 17.7 µM; inhibition at 10 µM (ATX): ≥ 50%; effect on activity of NPP6 (human NPP6): None of the compounds affected the activity
7 | 51.2 ± 1.3 | – | CCn1cc(C(=O)O)c(=O)c2cnc(N3CCN(C(=S)Nc4ccccc4C(=O)OC)CC3)nc21 [Compound 5, 2-(4-{[(2-methylesterphenyl)amino]carbonothioyl}-1-piperazinyl)-8-ethyl-5-oxo-5,8-dihydropyrido[2,3-d]pyrimidine-6-carboxylic acid] | –
8 | 79.7 ± 0.9 | 79.7 ± 0.9 | CCn1cc(C(=O)O)c(=O)c2cnc(N3CCN(C(=S)Nc4ccc(OC)cc4)CC3)nc21 [Compound 24, 2-(4-{[(4-methoxyphenyl)amino]carbonothioyl}-1-piperazinyl)-8-ethyl-5-oxo-5,8-dihydropyrido[2,3-d]pyrimidine-6-carboxylic acid] | –
9 | 72.3 ± 0.4 | – | CCn1cc(C(=O)O)c(=O)c2cnc(N3CCN(C(=S)Nc4cccc(Cl)c4Cl)CC3)nc21 [Compound 15, 2-(4-{[(2,3-dichlorophenyl)amino]carbonothioyl}-1-piperazinyl)-8-ethyl-5-oxo-5,8-dihydropyrido[2,3-d]pyrimidine-6-carboxylic acid] | –
10 | 72.7 ± 2.2 | – | CCn1cc(C(=O)O)c(=O)c2cnc(N3CCN(C(=S)Nc4ccc(C(=O)O)cc4)CC3)nc21 [Compound 4, 2-(4-{[(4-carboxylphenyl)amino]carbonothioyl}-1-piperazinyl)-8-ethyl-5-oxo-5,8-dihydropyrido[2,3-d]pyrimidine-6-carboxylic acid] | –
11 | 64.1 ± 2.8 | – | CCn1cc(C(=O)O)c(=O)c2cnc(N3CCN(C(=S)Nc4ccc(S(=O)(=O)N5CCOCC5)cc4)CC3)nc21 [Compound 6, 2-(4-{[(4-morpholinosulfonylphenyl)amino]carbonothioyl}-1-piperazinyl)-8-ethyl-5-oxo-5,8-dihydropyrido[2,3-d]pyrimidine-6-carboxylic acid] | –
12 | 63.2 ± 2.8 | – | CCn1cc(C(=O)O)c(=O)c2cnc(N3CCN(C(=S)Nc4ccccc4-c4cccc5nsnc45)CC3)nc21 [Compound 10, 2-(4-{[(2-benzothiadiazolphenyl)amino]carbonothioyl}-1-piperazinyl)-8-ethyl-5-oxo-5,8-dihydropyrido[2,3-d]pyrimidine-6-carboxylic acid] | –
13 | 68.6 ± 1.1 | – | CCn1cc(C(=O)O)c(=O)c2cnc(N3CCN(C(=S)Nc4ccc(-n5cccn5)cc4)CC3)nc21 [Compound 9, 2-(4-{[(4-pyrazolephenyl)amino]carbonothioyl}-1-piperazinyl)-8-ethyl-5-oxo-5,8-dihydropyrido[2,3-d]pyrimidine-6-carboxylic acid] | –
14 | 100.8 ± 1.9 | 100.8 ± 1.9 | CCn1cc(C(=O)O)c(=O)c2cnc(N3CCN(C(=S)Nc4ccccc4C(F)(F)F)CC3)nc21 [Compound 12, 2-(4-{[(2-trifluoromethylphenyl)amino]carbonothioyl}-1-piperazinyl)-8-ethyl-5-oxo-5,8-dihydropyrido[2,3-d]pyrimidine-6-carboxylic acid] | –
15 | 53.5 ± 1.6 | – | CCn1cc(C(=O)O)c(=O)c2cnc(N3CCN(C(=S)Nc4c(C)cc(C)cc4C)CC3)nc21 [Compound 8, 2-(4-{[(2,4,6-mesitylphenyl)amino]carbonothioyl}-1-piperazinyl)-8-ethyl-5-oxo-5,8-dihydropyrido[2,3-d]pyrimidine-6-carboxylic acid] | –
16 | 77.3 ± 1.6 | 77.3 ± 1.6 | CCn1cc(C(=O)O)c(=O)c2cnc(N3CCN(C(=S)Nc4ccccc4F)CC3)nc21 [Compound 30, 2-(4-{[(2-fluorophenyl)amino]carbonothioyl}-1-piperazinyl)-8-ethyl-5-oxo-5,8-dihydropyrido[2,3-d]pyrimidine-6-carboxylic acid] | –
17 | 68.4 ± 1.3 | 68.4 ± 1.3 | CCn1cc(C(=O)O)c(=O)c2cnc(N3CCN(C(=S)Nc4ccccc4I)CC3)nc21 [Compound 26, 2-(4-{[(2-iodophenyl)amino]carbonothioyl}-1-piperazinyl)-8-ethyl-5-oxo-5,8-dihydropyrido[2,3-d]pyrimidine-6-carboxylic acid] | –
